Assay results: US12606561B2, “Substituted pyrazolo[1,5-a][1,3,5]triazines as CDK inhibitors” (QURIENT CO., LTD., priority 2018, dated 2026)

How the values were obtained:
[1] = molecular target: T1, CDK1/Cyclin B (Homo sapiens, UniProt P06493); assay: Enzymatic assay for CDK1 (LANCE Ultra kinase assay, FRET based); assay type: biochemical; settings: ATP at Km; read-out: CDK1 enzymatic activity IC50
T1 construct: purchased Invitrogen PR4768C
How it was run: (§1)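 Purified CDK–cyclin enzyme, ATP at Km; ULight peptide substrate; TR-FRET via Eu anti-phospho-Ab; inhibition scored.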

[2] = molecular target: T2, CDK2/Cyclin A (Homo sapiens, UniProt P24941); assay: Enzymatic assay for CDK2 (LANCE Ultra kinase assay, FRET based); assay type: biochemical; settings: ATP at Km
T2 construct: purchased Invitrogen PV6290
How it was run: (§2)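 Compounds tested as 8 doses in 4-fold steps against CDK2/Cyclin A ([…]) or CDK5/p25 ([…]), with ATP at its Km and 68 nM ULight-MBP substrate. After 60 min at 23° C., EDTA plus Eu-labelled anti-phospho-MBP added; TR-FRET (615/665 nm) read after another 60 min.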

[3] = molecular target: T3, CDK5/p25 (Homo sapiens, UniProt Q00535); assay: Enzymatic assay for CDK5 (LANCE Ultra kinase assay, FRET based); assay type: biochemical; settings: ATP at Km
T3 construct: purchased Invitrogen PR8543B
How it was run: as §2

[4] = molecular target: T4, CDK7/Cyclin H/MNAT1 (Homo sapiens, UniProt P50613); assay: Enzymatic assay for CDK7 (LANCE Ultra kinase assay, FRET based); assay type: biochemical; settings: for IC50: ATP at Km
T4 construct: purchased Invitrogen PR6749B
How it was run: as §1

[5] = system: MV4-11; assay: Cellular MV4-11 viability assay (CellTiter-Glo, 72 hours); assay type: cell-based; settings: Homo sapiens; MV4-11 cells
Description: Human […] cell line, MV4-11_(ATCC, Cat #CRL-9591), NSCLC (Non-small cell lung cancer) cell line H460 (ATCC, Cat #HTB-177), A2780 (ECACC, Cat #93112519) and OVCAR-3(ATCC, Cat #HTB-161) were obtained from ATCC. Cells were grown in RPMI-1640 media (Invitrogen, Cat #22400-089) supplemented with 10% FBS (Invitrogen, Cat #10099141) and 1% penicillin/streptomycin (Invitrogen, Cat #15070063) and cultured at 37° C., 5% CO2 in a humidified chamber. All cell lines were routinely tested for mycoplasma.
To effect of the CDK7 inhibitor to inhibit the growth of target cancer cells, viability assay were conducted a 72 hour time period. Briefly, the candidate cell line was plated in 96 well plate at the following density of cells respectively. 1×10^4 cells/well for MV4-11, 5×10^3 for H460 and OVCAR-3, and 1×10^3 for A2780. After 24 hours, the cells were treated with various concentrations of the compound (ranging from 0.0015 uM to 10 uM). DMSO solvent without compound served as a control and final DMSO concentration lest than 0.1%. After 72 hours of incubation at 37° C., 5% CO2 incubator, cells were analyzed for the viability using the CellTiter-Glo Luminescent Cell Viability Assay (Promega, Cat #G7570). All viability assays were performed in duplicate and Luminescence was read using an Envision (Perkin Elmer, USA). Data was analyzed using XLfit software.

[6] = system: A2780; assay: A2780 viability assay (CellTiter-Glo, 72 hours); assay type: cell-based; settings: Homo sapiens; A2780 cells
How it was run: (§3)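 RPMI-1640/10% FBS; plate cells (MV4-11 1×10^4, OVCAR-3 5×10^3, A2780 1×10^3 per well); 24 h later add compound 0.0015–10 uM; 72 h, 37° C; CellTiter-Glo luminescence, duplicate wells.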

[7] = system: OVCAR-3; assay: OVCAR-3 viability assay (CellTiter-Glo, 72 hours); assay type: cell-based; settings: Homo sapiens; OVCAR-3 cells
How it was run: as §3

T1 sequence (P06493 whole entry): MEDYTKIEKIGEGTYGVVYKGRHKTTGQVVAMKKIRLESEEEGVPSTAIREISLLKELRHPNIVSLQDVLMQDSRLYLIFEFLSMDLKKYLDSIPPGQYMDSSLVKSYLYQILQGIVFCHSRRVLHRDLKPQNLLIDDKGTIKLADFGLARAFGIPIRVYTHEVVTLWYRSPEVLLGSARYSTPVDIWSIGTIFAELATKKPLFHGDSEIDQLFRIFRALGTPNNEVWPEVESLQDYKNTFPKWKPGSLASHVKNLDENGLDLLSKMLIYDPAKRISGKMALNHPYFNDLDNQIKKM
T1 sequence (P14635 whole entry partner): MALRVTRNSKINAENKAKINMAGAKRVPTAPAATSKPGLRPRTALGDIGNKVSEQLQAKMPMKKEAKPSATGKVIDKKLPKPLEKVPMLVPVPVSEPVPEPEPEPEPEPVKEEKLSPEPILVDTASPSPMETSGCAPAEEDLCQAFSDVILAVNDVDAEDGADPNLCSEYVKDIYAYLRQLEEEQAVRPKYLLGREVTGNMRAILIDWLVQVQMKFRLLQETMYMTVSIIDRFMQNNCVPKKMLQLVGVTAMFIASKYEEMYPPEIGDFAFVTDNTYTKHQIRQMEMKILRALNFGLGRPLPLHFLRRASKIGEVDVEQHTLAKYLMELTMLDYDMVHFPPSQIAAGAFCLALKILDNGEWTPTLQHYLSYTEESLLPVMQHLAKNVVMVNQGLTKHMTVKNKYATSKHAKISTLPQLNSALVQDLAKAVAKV
T4 sequence (P50613 whole entry): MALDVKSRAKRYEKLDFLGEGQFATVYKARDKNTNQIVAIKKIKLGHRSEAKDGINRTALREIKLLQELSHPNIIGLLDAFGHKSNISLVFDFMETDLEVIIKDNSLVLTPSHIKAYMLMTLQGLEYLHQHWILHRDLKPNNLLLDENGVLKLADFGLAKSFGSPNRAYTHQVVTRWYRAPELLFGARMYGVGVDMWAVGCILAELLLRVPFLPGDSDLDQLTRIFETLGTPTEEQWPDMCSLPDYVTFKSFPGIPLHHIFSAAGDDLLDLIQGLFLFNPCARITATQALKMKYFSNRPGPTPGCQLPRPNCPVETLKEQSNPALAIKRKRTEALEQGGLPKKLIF
T4 sequence (P51946 whole entry partner): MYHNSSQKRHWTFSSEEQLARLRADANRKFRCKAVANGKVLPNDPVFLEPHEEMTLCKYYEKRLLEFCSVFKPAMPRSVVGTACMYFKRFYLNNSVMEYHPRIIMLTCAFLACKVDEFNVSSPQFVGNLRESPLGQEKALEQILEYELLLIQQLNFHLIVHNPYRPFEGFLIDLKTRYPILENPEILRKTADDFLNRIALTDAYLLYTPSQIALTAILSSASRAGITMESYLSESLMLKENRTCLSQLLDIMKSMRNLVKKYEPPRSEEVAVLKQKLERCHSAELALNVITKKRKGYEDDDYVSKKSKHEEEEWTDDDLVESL
T4 sequence (P51948 whole entry partner): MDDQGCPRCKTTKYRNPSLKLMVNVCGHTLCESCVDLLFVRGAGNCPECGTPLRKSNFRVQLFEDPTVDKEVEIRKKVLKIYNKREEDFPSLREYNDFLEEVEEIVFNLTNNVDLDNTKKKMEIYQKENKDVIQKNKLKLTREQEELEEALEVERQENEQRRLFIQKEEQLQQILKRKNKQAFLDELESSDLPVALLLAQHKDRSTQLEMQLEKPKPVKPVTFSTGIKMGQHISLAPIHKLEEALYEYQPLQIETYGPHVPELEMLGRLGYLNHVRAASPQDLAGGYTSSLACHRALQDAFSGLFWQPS
T3 sequence (Q00535 whole entry): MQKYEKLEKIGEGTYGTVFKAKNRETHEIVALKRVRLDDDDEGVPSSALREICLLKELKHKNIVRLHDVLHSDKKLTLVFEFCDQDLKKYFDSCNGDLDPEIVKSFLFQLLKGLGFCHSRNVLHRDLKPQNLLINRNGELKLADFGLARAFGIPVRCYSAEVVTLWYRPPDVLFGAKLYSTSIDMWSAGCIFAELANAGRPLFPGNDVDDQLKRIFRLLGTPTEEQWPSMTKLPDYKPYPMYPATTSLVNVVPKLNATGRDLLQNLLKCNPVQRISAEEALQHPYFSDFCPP
T3 sequence (Q15078 99-307 partner limits assumed): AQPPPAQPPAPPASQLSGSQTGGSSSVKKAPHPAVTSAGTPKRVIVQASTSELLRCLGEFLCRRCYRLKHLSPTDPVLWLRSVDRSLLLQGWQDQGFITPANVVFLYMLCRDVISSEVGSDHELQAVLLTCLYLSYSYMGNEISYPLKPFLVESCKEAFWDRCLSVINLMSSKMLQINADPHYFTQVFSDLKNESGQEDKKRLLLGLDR

Compound | IC50 [1] [nM] | IC50 [2] [nM] | IC50 [3] [nM] | IC50 [4] [nM] | CDK1/CDK7: Selectivity of CDK7 inhibition over CDK1 inhibition [4] | CDK2/CDK7: Selectivity of CDK7 inhibition over CDK2 inhibition [4] | CDK5/CDK7: Selectivity of CDK7 inhibition over CDK5 inhibition [4] | IC50 [5] [nM] | IC50 [6] [nM] | IC50 [7] [nM]
CC(C)c1cnn2c(NCc3ccccc3-c3nccc4cc(NC(=O)/C=C/CN(C)C)ccc34)nc(NCC3CCNC(=O)C3)nc12 (racemic) [Compound 30] | > 1000 | > 1000 | > 1000 | 100 to 1000 | B (B indicates 50 < [fold] ≤ 500) | B (B indicates 50 < [fold] ≤ 500) | B (B indicates 50 < [fold] ≤ 500) | < 1000 | < 1000 | < 1000
CC(C)c1cnn2c(NCc3ccccc3-c3nccc4cc(NC(=O)/C=C/CN(C)C)ccc34)nc(N3CCC(O)C3)nc12 (racemic) [Compound 37] | > 1000 | > 1000 | > 1000 | 100 to 1000 | B (B indicates 50 < [fold] ≤ 500) | B (B indicates 50 < [fold] ≤ 500) | B (B indicates 50 < [fold] ≤ 500) | < 1000 | < 1000 | < 1000
COC1CCN(c2nc(NCc3ccccc3-c3nccc4cc(NC(=O)/C=C/CN(C)C)ccc34)n3ncc(C(C)C)c3n2)CC1 [Compound 61] | > 1000 | > 1000 | > 1000 | < 100 | A (A indicates [fold] > 500) | A (A indicates [fold] > 500) | A (A indicates [fold] > 500) | < 1000 | < 1000 | < 1000
C/C=C/C(=O)Nc1ccc2c(-c3ccccc3CNc3nc(NC[C@H]4CCNC[C@@H]4O)nc4c(C(C)C)cnn34)nccc2c1 [Compound 68] | > 1000 | > 1000 | > 1000 | < 100 | A (A indicates [fold] > 500) | A (A indicates [fold] > 500) | A (A indicates [fold] > 500) | < 1000 | < 1000 | < 1000
C/C=C/C(=O)Nc1ccc2c(-c3ccccc3CNc3nc(N4CCC(N)CC4)nc4c(C(C)C)cnn34)nccc2c1 [Compound 50] | > 1000 | > 1000 | > 1000 | < 100 | A (A indicates [fold] > 500) | A (A indicates [fold] > 500) | A (A indicates [fold] > 500) | < 1000 | < 1000 | < 1000
C=C(C)C(=O)Nc1ccc2c(-c3ccccc3CNc3nc(N4CCC(N)CC4)nc4c(C(C)C)cnn34)nccc2c1 [Compound 48] | > 1000 | > 1000 | > 1000 | < 100 | A (A indicates [fold] > 500) | A (A indicates [fold] > 500) | A (A indicates [fold] > 500) | < 1000 | < 1000 | < 1000
C=C(F)C(=O)Nc1ccc2c(-c3ccccc3CNc3nc(N4CCNCC4)nc4c(C(C)C)cnn34)nccc2c1 [Compound 79] | > 1000 | > 1000 | > 1000 | < 100 | A (A indicates [fold] > 500) | A (A indicates [fold] > 500) | A (A indicates [fold] > 500) | < 1000 | < 1000 | < 1000
CC(C)c1cnn2c(NCc3ccccc3-c3nccc4cc(NC(=O)/C=C/CN(C)C)ccc34)nc(NCC3CCOCC3)nc12 [Compound 43] | > 1000 | > 1000 | > 1000 | 100 to 1000 | B (B indicates 50 < [fold] ≤ 500) | B (B indicates 50 < [fold] ≤ 500) | B (B indicates 50 < [fold] ≤ 500) | < 1000 | < 1000 | < 1000
CC(C)c1cnn2c(NCc3ccccc3-c3nccc4cc(NC(=O)/C=C/CN(C)C)ccc34)nc(N3CCCC(O)CC3)nc12 (racemic) [Compound 38] | > 1000 | > 1000 | > 1000 | 100 to 1000 | B (B indicates 50 < [fold] ≤ 500) | B (B indicates 50 < [fold] ≤ 500) | B (B indicates 50 < [fold] ≤ 500) | < 1000 | < 1000 | < 1000
CC(C)c1cnn2c(NCc3ccccc3-c3nccc4cc(NC(=O)/C=C/CN(C)C)ccc34)nc(N3CCC(NC(=O)OC(C)(C)C)CC3)nc12 [Compound 75] | > 1000 | > 1000 | > 1000 | 100 to 1000 | B (B indicates 50 < [fold] ≤ 500) | B (B indicates 50 < [fold] ≤ 500) | B (B indicates 50 < [fold] ≤ 500) | < 1000 | < 1000 | < 1000
COC1CCC(Nc2nc(NCc3ccccc3-c3nccc4cc(NC(=O)/C=C/CN(C)C)ccc34)n3ncc(C(C)C)c3n2)CC1 (centres unmarked) [Compound 44] | > 1000 | > 1000 | > 1000 | < 100 | A (A indicates [fold] > 500) | A (A indicates [fold] > 500) | A (A indicates [fold] > 500) | < 1000 | < 1000 | < 1000
CC(C)c1cnn2c(NCc3ccccc3-c3nccc4cc(NC(=O)C5(C#N)CC5)ccc34)nc(N3CCC(N)CC3)nc12 [Compound 49] | > 1000 | > 1000 | > 1000 | < 100 | A (A indicates [fold] > 500) | A (A indicates [fold] > 500) | A (A indicates [fold] > 500) | < 1000 | < 1000 | < 1000
CC(C)c1cnn2c(NCc3ccccc3-c3nccc4cc(NC(=O)/C=C/CN(C)C)ccc34)nc(NCCCO)nc12 [Compound 28] | > 1000 | > 1000 | > 1000 | 100 to 1000 | B (B indicates 50 < [fold] ≤ 500) | B (B indicates 50 < [fold] ≤ 500) | B (B indicates 50 < [fold] ≤ 500) | < 1000 | < 1000 | < 1000
C/C=C/C(=O)Nc1ccc2c(-c3ccccc3CNc3nc(NC[C@H]4CNC[C@@H]4O)nc4c(C(C)C)cnn34)nccc2c1 [Compound 77] | > 1000 | > 1000 | > 1000 | < 100 | A (A indicates [fold] > 500) | A (A indicates [fold] > 500) | A (A indicates [fold] > 500) | < 1000 | 1000 to 10000 | 1000 to 10000
